Reference: patent US8252337B2, “Charged mesoporous silica nanoparticle-based drug delivery system for controlled release and enhanced bioavailability” (National Health Research Institutes, priority 2008, dated 2012)

Assay: Saturated aqueous sulfasalazine solution
Type: physicochemical
Settings: in H2O
Experimental: Sulfasalazine-Loaded MSN-TA Samples: A saturated aqueous sulfasalazine solution was prepared by dissolving 0.5 g of sulfasalazine in 1 L of H2O, stirred for 6 h, and filtered through a […] cellulose acetate membrane to remove the residual solids. […] Sulfasalazine was adsorbed onto MSN-TA samples by adding 10 mg of MSN-TA samples into 10 mL of the above saturated sulfasalazine solution. The mixture was stirred at 800 rpm for 4 h. The particles were then washed with deionized water and centrifuged for 20 min at 12 000 rpm. The supernatant was analyzed with a UV-Vis spectrometer. The amount of Sulfasalazine adsorbed onto nanoparticles was determined by measuring the decrease in absorption at 360 nm. The loading percentage of sulfasalazine onto MSN-TA-4 was about 1.7%.

- pH of saturated sulfasalazine solution: 5.4
Compound: O=C(O)c1cc(/N=N/c2ccc(S(=O)(=O)Nc3ccccn3)cc2)ccc1O [sulfasalazine]
